Data published in ChEMBL document CHEMBL1125972, “Synthesis of chemoreversible prodrugs of ARA-C” (Bioorg Med Chem Lett, 1991).

Assay: Half life value was determined
Type: ADME

SMILES	half-life [h]
CC(C)(NC(=O)[C@@H](N)Cc1ccc(OCc2ccccc2)cc1)C(=O)Nc1ccn(C2O[C@H](CO)[C@@H](O)[C@@H]2O)c(=O)n1 (stereo partly specified)	42
CC(C)(NC(=O)CO)C(=O)Nc1ccn(C2O[C@H](CO)[C@@H](O)[C@@H]2O)c(=O)n1 (stereo partly specified)	360
CC(=O)[O-].CC(C)(NC(=O)CO)C(=O)Nc1ccn(C2O[C@H](CO)[C@@H](O)[C@@H]2O)c(=O)n1.[Na+] (stereo partly specified)	1.4
CC(=O)O.CC(C)(NC(=O)[C@@H](N)Cc1ccc(OCc2ccccc2)cc1)C(=O)Nc1ccn(C2O[C@H](CO)[C@@H](O)[C@@H]2O)c(=O)n1 (stereo partly specified)	31
CC(=O)O.CC(C)(NC(=O)CO)C(=O)Nc1ccn(C2O[C@H](CO)[C@@H](O)[C@@H]2O)c(=O)n1 (stereo partly specified)	860
CC(=O)[O-].CC(C)(NC(=O)[C@@H](N)Cc1ccc(OCc2ccccc2)cc1)C(=O)Nc1ccn(C2O[C@H](CO)[C@@H](O)[C@@H]2O)c(=O)n1.[Na+] (stereo partly specified)	0.3
